From US11472799B2, “Serine threonine kinase (AKT) degradation / disruption compounds and methods of use” (Icahn School of Medicine at Mount Sinai, priority 2018, dated 2022)

system: AKT; assay: Western blot of AKT protein levels and downstream signaling in BT474 cells; type: cell-based, human; conditions: Western blot (FIGS. 1, 3, 4)
Protocol: PC-3, U87MG, HCC1143, MDA-MB-231, MDA-MB-468, BT474 and MCF-7 cell lines were purchased from ATCC. Cell lines were regularly tested in the lab for mycoplasma. All cells were cultured at 37° C. and 5% CO2. PC-3, U87MG, MDA-MB-231, MCF-7 and BT474 cells were cultured in 1×DMEM (Corning, 10-013-CV) with 10% fetal bovine serum (Atlanta Biologicals S11150) and 1× Penicillin/Streptomycin. HCC1143 cells were cultured in RPMI (Corning, 10-040-CV) medium with 10% fetal bovine serum (Atlanta Biologicals S11150) and 1× Penicillin/Streptomycin. Cells were split using 0.05% or 0.25% trypsin (Corning 25-051-Cl or 25-053-Cl, respectively) before they reached full confluence and media was changed every 3-4 days. Cells were treated with compounds individually at different concentrations for 24 hrs. Cells were treated with DMSO, VHL, or PML alone as controls.
Cells were lysed in 2× sample buffer (125 mM Tris-HCl at pH 6.8, 10% βME, 2% SDS, 20% glycerol, 0.05% Bromophenol Blue, 8 M urea). Protein lysates were loaded into 4-12% Bis-Tris gels and resolved by electrophoresis. Samples were then blotted on PVDF membrane (Millipore IPVH00010) using the wet transfer technique (Invitrogen). Membranes were blocked in 5% milk-TBST for 1 hour, washed in TBST for 10 min, and incubated in primary antibody in 5% milk-TBST or 5% BSA-TBST at 4° C. for 16 h. Membranes were rinsed (3×6 min) in TBST and incubated in horseradish peroxidase-conjugated secondary antibodies in 5% milk-TBST for 1 hour and rinsed again in TBST (3×6 min). Membranes were visualized using the chemiluminescence system (Thermo 34080, 37075) on autoradiography film (Denville E3018). Primary Antibodies: R-actin (Sigma A5316), p-AKT (Ser473 CST-9721), total AKT (CST-9272), p-S6 (Ser240/244, CST-5364), p-PRAS40 (Thr246, CST-2997). Secondary Antibodies: Mouse (Thermo 31432), Rabbit (Thermo 31460).

Structure (SMILES) | suppression of AKT protein level and AKT activity
C[C@@H]1C[C@@H](O)c2ncnc(N3CCN(C(=O)[C@H](CNCCC(=O)NCCCCCCNc4cccc5c4C(=O)N(C4CCC(=O)NC4=O)C5=O)c4ccc(Cl)cc4)CC3)c21 (stereo partly drawn) [XF042-168, 3-(((S)-2-(4-chlorophenyl)-3-(4-((5R,7R)-7-hydroxy-5-methyl-6,7-dihydro-5H-cyclopenta[d]pyrimidin-4-yl)piperazin-1-yl)-3-oxopropyl)amino)-N-(6-((2-(2,6-dioxopiperidin-3-yl)-1,3-dioxoisoindolin-4-yl)amino)hexyl)propanamide] | effective in suppressing both AKT protein level and AKT activity
C[C@@H]1C[C@@H](O)c2ncnc(N3CCN(C(=O)[C@H](CNCCC(=O)NCCCCCCCNc4cccc5c4C(=O)N(C4CCC(=O)NC4=O)C5=O)c4ccc(Cl)cc4)CC3)c21 (stereo partly drawn) [XF048-5, 3-(((S)-2-(4-chlorophenyl)-3-(4-((5R,7R)-7-hydroxy-5-methyl-6,7-dihydro-5H-cyclopenta[d]pyrimidin-4-yl)piperazin-1-yl)-3-oxopropyl)amino)-N-(7-((2-(2,6-dioxopiperidin-3-yl)-1,3-dioxoisoindolin-4-yl)amino)heptyl)propanamide] | effective in suppressing both AKT protein level and AKT activity
C[C@@H]1C[C@@H](O)c2ncnc(N3CCN(C(=O)[C@H](CNCCC(=O)NCCCCCCCCCc4cccc5c4C(=O)N(C4CCC(=O)NC4=O)C5=O)c4ccc(Cl)cc4)CC3)c21 (stereo partly drawn) [XF056-93, 3-(((S)-2-(4-chlorophenyl)-3-(4-((5R,7R)-7-hydroxy-5-methyl-6,7-dihydro-5H-cyclopenta[d]pyrimidin-4-yl)piperazin-1-yl)-3-oxopropyl)amino)-N-(9-(2-(2,6-dioxopiperidin-3-yl)-1,3-dioxoisoindolin-4-yl)nonyl)propanamide] | effective in suppressing both AKT protein level and AKT activity
C[C@@H]1C[C@@H](O)c2ncnc(N3CCN(C(=O)[C@H](CNCCC(=O)NCCOCCOCCOCCNc4cccc5c4C(=O)N(C4CCC(=O)NC4=O)C5=O)c4ccc(Cl)cc4)CC3)c21 (stereo partly drawn) [XF048-8, 3-(((S)-2-(4-chlorophenyl)-3-(4-((5R,7R)-7-hydroxy-5-methyl-6,7-dihydro-5H-cyclopenta[d]pyrimidin-4-yl)piperazin-1-yl)-3-oxopropyl)amino)-N-(2-(2-(2-(2-((2-(2,6-dioxopiperidin-3-yl)-1,3-dioxoisoindolin-4-yl)amino)ethoxy)ethoxy)ethoxy)ethyl)propanamide] | effective in suppressing both AKT protein level and AKT activity
C[C@@H]1C[C@@H](O)c2ncnc(N3CCN(C(=O)[C@H](CNCCC(=O)NCCOCCOCCOCCOCCNc4cccc5c4C(=O)N(C4CCC(=O)NC4=O)C5=O)c4ccc(Cl)cc4)CC3)c21 (stereo partly drawn) [XF038-176A, 3-(((S)-2-(4-chlorophenyl)-3-(4-((5R,7R)-7-hydroxy-5-methyl-6,7-dihydro-5H-cyclopenta[d]pyrimidin-4-yl)piperazin-1-yl)-3-oxopropyl)amino)-N-(14-((2-(2,6-dioxopiperidin-3-yl)-1,3-dioxoisoindolin-4-yl)amino)-3,6,9,12-tetraoxatetradecyl)propanamide] | effective in suppressing both AKT protein level and AKT activity
C[C@@H]1C[C@@H](O)c2ncnc(N3CCN(C(=O)[C@H](CNCCNC(=O)CCOCCOCCNc4cccc5c4C(=O)N(C4CCC(=O)NC4=O)C5=O)c4ccc(Cl)cc4)CC3)c21 (stereo partly drawn) [XF048-1, N-(2-(((N)-2-(4-chlorophenyl)-3-(4-((5R,7R)-7-hydroxy-5-methyl-6,7-dihydro-5H-cyclopenta[d]pyrimidin-4-yl)piperazin-1-yl)-3-oxopropyl)amino)ethyl)-3-(2-(2-((2-(2,6-dioxopiperidin-3-yl)-1,3-dioxoisoindolin-4-yl)amino)ethoxy)ethoxy) propanamide] | effective in suppressing both AKT protein level and AKT activity
Cc1ncsc1-c1ccc(CNC(=O)[C@@H]2C[C@@H](O)CN2C(=O)[C@@H](NC(=O)COCCOCC(=O)N2CCN(CC[C@H](NC(=O)C3(N)CCN(c4ncnc5[nH]ccc45)CC3)c3ccc(Cl)cc3)CC2)C(C)(C)C)cc1 [XF050-7, 4-amino-N-((S)-1-(4-chlorophenyl)-3-(4-(2-(2-(2-(((S)-1-((2S,4R)-4-hydroxy-2-((4-(4-methylthiazol-5-yl)benzyl)carbamoyl)pyrrolidin-1-yl)-3,3-dimethyl-1-oxobutan-2-yl)amino)-2-oxoethoxy)ethoxy)acetyl)piperazin-1-yl)propyl)-1-(7H-pyrrolo[2,3-d]pyrimidin-4-yl)piperidine-4-carboxamide] | effective in suppressing both AKT protein level and AKT activity
NC1(C(=O)N[C@@H](CCN2CCN(C(=O)CCOCCOCCOCCOCCOCCOCCOCCOCCOCCNc3cccc4c3C(=O)N(C3CCC(=O)NC3=O)C4=O)CC2)c2ccc(Cl)cc2)CCN(c2ncnc3[nH]ccc23)CC1 (stereo partly drawn) [XF056-35, 4-amino-N-((1S)-1-(4-chlorophenyl)-3-(4-(1-((2-(2,6-dioxopiperidin-3-yl)-1,3-dioxoisoindolin-4-yl)amino)-3,6,9,12,15,18,21,24,27-nonaoxatriacontan-30-oyl)piperazin-1-yl)propyl)-1-(7H-pyrrolo[2,3-d]pyrimidin-4-yl)piperidine-4-carboxamide] | effective in suppressing both AKT protein level and AKT activity
Cc1ncsc1-c1ccc(CNC(=O)[C@@H]2C[C@@H](O)CN2C(=O)[C@@H](NC(=O)CCCCCCCCC(=O)N2CCN(CC[C@H](NC(=O)C3(N)CCN(c4ncnc5[nH]ccc45)CC3)c3ccc(Cl)cc3)CC2)C(C)(C)C)cc1 [XF050-20, 4-amino-N-((S)-1-(4-chlorophenyl)-3-(4-(10-(((S)-1-((2S,4R)-4-hydroxy-2-((4-(4-methylthiazol-5-yl)benzyl)carbamoyl)pyrrolidin-1-yl)-3,3-dimethyl-1-oxobutan-2-yl)amino)-10-oxodecanoyl)piperazin-1-yl)propyl)-1-(7H-pyrrolo[2,3-d]pyrimidin-4-yl)piperidine-4-carboxamide] | effective in suppressing both AKT protein level and AKT activity
Cc1ncsc1-c1ccc([C@H](C)NC(=O)[C@@H]2C[C@@H](O)CN2C(=O)[C@@H](NC(=O)CCCCCCCCCC(=O)N2CCN(CC[C@H](NC(=O)C3(N)CCN(c4ncnc5[nH]ccc45)CC3)c3ccc(Cl)cc3)CC2)C(C)(C)C)cc1 [XF050-167, 4-amino-N-((S)-1-(4-chlorophenyl)-3-(4-(11-(((S)-1-((2S,4R)-4-hydroxy-2-(((S)-1-(4-(4-methylthiazol-5-yl)phenyl)ethyl)carbamoyl)pyrrolidin-1-yl)-3,3-dimethyl-1-oxobutan-2-yl)amino)-11-oxoundecanoyl)piperazin-1-yl)propyl)-1-(7H-pyrrolo[2,3-d]pyrimidin-4-yl)piperidine-4-carboxamide] | effective in suppressing both AKT protein level and AKT activity
